Values of other authors in PubChem BioAssay AID1259409 (Chemical Carcinogenesis Research Information System (CCRIS), 2018).

Test system: rodent chemically induced tumor inhibition, incidence and multiplicity
Assay: CCRIS tumor inhibitor studies

Structure (SMILES): O=C(O)C[CH2][Ge](=[O])[O][Ge](=[O])[CH2]CC(=O)O
- tumour outcome (control, treated, inhibition, significance) (Carcinogen: 1,2-DIMETHYLHYDRAZINE, 540-73-8, Dose [Inhibitor]: 0, 100 MG/KG BW 1/D FOR FIRST 8 WK THEN 1/2 D FOR 19 WK (STUDY DURATION: 27 WK), Route [Inhibitor]: GAVAGE, Species: RAT, Strain/Sex: WISTAR/MALE, Target Tissue: Type of Lesion: COLON: TUMOR, Dose [Carcinogen]: 20 MG/KG BW 1/WK FOR 15 WK, Promoter: NONE USED): 36/36 (100%), 33/35 (94%), 6%, not significant
- tumour outcome (control, treated, inhibition, significance) (Carcinogen: DIETHYLNITROSAMINE, 55-18-5, N-METHYL-N-NITROSOUREA, 684-93-5, N,N-DIBUTYLNITROSAMINE, 924-16-3, Carcinogen: DIETHYLNITROSAMINE, 55-18-5, N-METHYL-N-NITROSOUREA, 684-93-5, N,N-DIBUTYLNITROSAMINE, 924-16-3, Dose [Inhibitor]: 0, 0.05% IN DIET BEGINNING POST CARCINOGEN TREATMENT AND CONTINUING TO WK 40 (STUDY DURATION: 40 WK), Route [Inhibitor]: ORAL, Species: RAT, Strain/Sex: F344/MALE, Target Tissue: Type of Lesion: LUNG: ADENOMA, Dose [Carcinogen]: 100 MG/KG DIETHYLNITROSAMINE ONCE FOLLOWED BY 20 MG/KG N-METHYL-N-NITROSOUREA ON D 2, 5, 8 AND 11 THEN 0.05% N-N-DIBUTYL, Promoter: NONE USED): 9/16 (56%), 1/19 (5%), 91%, p<0.001
- tumour outcome (control, treated, inhibition, significance) (Carcinogen: DIETHYLNITROSAMINE, 55-18-5, N-METHYL-N-NITROSOUREA, 684-93-5, N,N-DIBUTYLNITROSAMINE, 924-16-3, Carcinogen: DIETHYLNITROSAMINE, 55-18-5, N-METHYL-N-NITROSOUREA, 684-93-5, N,N-DIBUTYLNITROSAMINE, 924-16-3, Dose [Inhibitor]: 0, 0.05% IN DIET BEGINNING POST CARCINOGEN TREATMENT AND CONTINUING TO WK 40 (STUDY DURATION: 40 WK), Route [Inhibitor]: ORAL, Species: RAT, Strain/Sex: F344/MALE, Target Tissue: Type of Lesion: LUNG: CARCINOMA, Dose [Carcinogen]: 100 MG/KG DIETHYLNITROSAMINE ONCE FOLLOWED BY 20 MG/KG N-METHYL-N-NITROSOUREA ON D 2, 5, 8 AND 11 THEN 0.05% N-N-DIBUTYL, Promoter: NONE USED): 3/16 (19%), 0/19 (0%), 100%, not calculated
- tumour outcome (control, treated, inhibition, significance) (Carcinogen: DIETHYLNITROSAMINE, 55-18-5, N-METHYL-N-NITROSOUREA, 684-93-5, N,N-DIBUTYLNITROSAMINE, 924-16-3, Carcinogen: DIETHYLNITROSAMINE, 55-18-5, N-METHYL-N-NITROSOUREA, 684-93-5, N,N-DIBUTYLNITROSAMINE, 924-16-3, Dose [Inhibitor]: 0, 0.05% IN DIET BEGINNING POST CARCINOGEN TREATMENT AND CONTINUING TO WK 40 (STUDY DURATION: 40 WK), Route [Inhibitor]: ORAL, Species: RAT, Strain/Sex: F344/MALE, Target Tissue: Type of Lesion: THYROID: ADENOMA, Dose [Carcinogen]: 100 MG/KG DIETHYLNITROSAMINE ONCE FOLLOWED BY 20 MG/KG N-METHYL-N-NITROSOUREA ON D 2, 5, 8 AND 11 THEN 0.05% N-N-DIBUTYL, Promoter: NONE USED): 8/16 (50%), 2/19 (11%), 78%, p<0.02
- tumour outcome (control, treated, inhibition, significance) (Carcinogen: DIETHYLNITROSAMINE, 55-18-5, N-METHYL-N-NITROSOUREA, 684-93-5, N,N-DIBUTYLNITROSAMINE, 924-16-3, Carcinogen: DIETHYLNITROSAMINE, 55-18-5, N-METHYL-N-NITROSOUREA, 684-93-5, N,N-DIBUTYLNITROSAMINE, 924-16-3, Dose [Inhibitor]: 0, 0.05% IN DIET BEGINNING POST CARCINOGEN TREATMENT AND CONTINUING TO WK 40 (STUDY DURATION: 40 WK), Route [Inhibitor]: ORAL, Species: RAT, Strain/Sex: F344/MALE, Target Tissue: Type of Lesion: THYROID: CARCINOMA, Dose [Carcinogen]: 100 MG/KG DIETHYLNITROSAMINE ONCE FOLLOWED BY 20 MG/KG N-METHYL-N-NITROSOUREA ON D 2, 5, 8 AND 11 THEN 0.05% N-N-DIBUTYL, Promoter: NONE USED): 2/16 (13%), 1/19 (5%), 62%, not calculated
- tumour outcome (control, treated, inhibition, significance) (Carcinogen: DIETHYLNITROSAMINE, 55-18-5, N-METHYL-N-NITROSOUREA, 684-93-5, N,N-DIBUTYLNITROSAMINE, 924-16-3, Carcinogen: DIETHYLNITROSAMINE, 55-18-5, N-METHYL-N-NITROSOUREA, 684-93-5, N,N-DIBUTYLNITROSAMINE, 924-16-3, Dose [Inhibitor]: 0, 0.05% IN DIET BEGINNING POST CARCINOGEN TREATMENT AND CONTINUING TO WK 40 (STUDY DURATION: 40 WK), Route [Inhibitor]: ORAL, Species: RAT, Strain/Sex: F344/MALE, Target Tissue: Type of Lesion: URINARY BLADDER: CARCINOMA, Dose [Carcinogen]: 100 MG/KG DIETHYLNITROSAMINE ONCE FOLLOWED BY 20 MG/KG N-METHYL-N-NITROSOUREA ON D 2, 5, 8 AND 11 THEN 0.05% N-N-DIBUTYL, Promoter: NONE USED): 1/16 (6%), 0/19 (0%), 100%, not calculated
- tumour outcome (control, treated, inhibition, significance) (Carcinogen: DIETHYLNITROSAMINE, 55-18-5, N-METHYL-N-NITROSOUREA, 684-93-5 N,N-DIBUTYLNITROSAMINE, 924-16-3, Carcinogen: DIETHYLNITROSAMINE, 55-18-5, N-METHYL-N-NITROSOUREA, 684-93-5 N,N-DIBUTYLNITROSAMINE, 924-16-3, Dose [Inhibitor]: 0, 0.05% IN DIET BEGINNING POST CARCINOGEN TREATMENT AND CONTINUING TO WK 40 (STUDY DURATION: 40 WK), Route [Inhibitor]: ORAL, Species: RAT, Strain/Sex: F344/MALE, Target Tissue: Type of Lesion: URINARY BLADDER: PAPILLOMA, Dose [Carcinogen]: 100 MG/KG DIETHYLNITROSAMINE ONCE FOLLOWED BY 20 MG/KG N-METHYL-N-NITROSOUREA ON D 2, 5, 8 AND 11 THEN 0.05% N-N-DIBUTYL, Promoter: NONE USED): 4/16 (25%), 1/19 (5%), 80%, not calculated

Structure (SMILES): CC(C)(C)c1cc(C(C)(C)C)c(O)c(C(C)(C)C)c1
- tumour outcome (control, treated, inhibition, significance) (Carcinogen: BENZO[A]PYRENE, 50-32-8, Dose [Inhibitor]: 0.03 MMOL/G OF DIET DAILY STARTING 7 D BEFORE AND CONTINUING THROUGH 3 D AFTER CARCINOGEN TREATMENT FOLLOWED BY OBSERVAT, Route [Inhibitor]: ORAL, Species: MOUSE, Strain/Sex: ICR/FEMALE, Target Tissue: Type of Lesion: FORESTOMACH: NEOPLASM, Dose [Carcinogen]: 1 MG IN 0.2 ML CORN OIL 2/WK FOR 4 WK, Promoter: NONE USED): 100%, 93%, 7%, not significant

Structure (SMILES): CC[C@H](C)/C=C/C1=CC2=C(Cl)C(=O)[C@@]3(C)OC(=O)C(C(=O)[C@@H](C)[C@@H](C)O)=C3C2=CO1
- tumour outcome (control, treated, inhibition, significance) (Carcinogen: 7,12-DIMETHYLBENZ[A]ANTHRACENE, 57-97-6, Dose [Inhibitor]: 0, 2 UMOL 2/WK FOR 18 WK APPLIED 30 MIN PRIOR TO EACH PROMOTER DOSE BEGINNING 1 WK POST CARCINOGEN DOSE (STUDY DURATION:, Route [Inhibitor]: DERMAL, Species: MOUSE, Strain/Sex: ICR/FEMALE, Target Tissue: Type of Lesion: SKIN: PAPILLOMA, Dose [Carcinogen]: 50 UG ONCE, Promoter: 12-O-TETRADECANOYLPHORBOL-13-ACETATE, 16561-29-8): 100%, 33%, 67%, not calculated

Structure (SMILES): CCNC(=O)[C@@H]1CCCN1C(=O)[C@H](CCCN=C(N)N)NC(=O)[C@H](CC(C)C)NC(=O)[C@@H](CC(C)C)NC(=O)[C@H](Cc1ccc(O)cc1)NC(=O)[C@H](CO)NC(=O)[C@H](Cc1c[nH]c2ccccc12)NC(=O)[C@H](Cc1cnc[nH]1)NC(=O)[C@@H]1CCC(=O)N1
- tumour outcome (control, treated, inhibition, significance) (Carcinogen: N-BUTYL-N-(4-HYDROXYBUTYL)NITROSAMINE, 3817-11-6, Dose [Inhibitor]: 0, 1 MG/KG 1/4 WK FOR 11 WK BEGINNING POST CARCINOGEN TREATMENT (STUDY DURATION: 21 WK), Route [Inhibitor]: SUBCUTANEOUS, Species: RAT, Strain/Sex: WISTAR/MALE, Target Tissue: Type of Lesion: URINARY BLADDER:CARCINOMA, Dose [Carcinogen]: 0.05% IN DRINKING WATER FOR 10 WK, Promoter: NONE USED): 15/17 (88%), 10/18 (56%), 36%, p<0.05
